According to US4353907A, “Amidino hydrazone . C17 H29-35 COOH insect and fire ant bait formulations” (American Cyanamid Co., priority 1981, dated 1982):
Values joined by “and” are separate entries in the source; they are usually repeats but may differ in a detail not shown here. Equal entries are not always repeated.

Experiments:
[1] = Determination of Solubility in Soybean Oil (HPLC of oil phase after equilibration); type: physicochemical; settings: for % Salt in Oil Layer / % Amidino Hydrazone in Oil Layer (w/w), Average: 25° C.; for % Salt in Oil Layer: footnote * formula (drawing 4); for % Amidino Hydrazone in Oil Layer (w/w), Average: average of duplicates; for % Amidino Hydrazone in Oil Layer (w/w): individual duplicate, equilibrated at 100° C. 4 hours, cooled to 25° C.
Description: Each salt of example 1 was equilibrated with approximately 3/8 its weight of soybean oil at 100° C. for 4 hours with ultrasonic agitation. The resulting mixtures were centrifuged while hot and allowed to cool to room temperature (25° C.). […] Duplicate samples of the oil phases were analyzed by solution in methylene chloride and quantitation by HPLC.

[2] = test system: Southern armyworm (Spodoptera eridania), 3rd instar; experiment: Screening: Southern armyworm larva; type: in vivo
Description: Insect: Southern armyworm (Spodoptera eridania). 3rd instar.
Test: Screening: Southern armyworm larva.
Formulation: 2:1 acetone:water.
Plant Preparation: Sieva lima bean plants are selected with primary leaves 7-8 cm long and cut back to one plant per pot.
Insect Preparation: A 100×10 mm petri dish is prepared by putting a damp filter paper in the bottom and ten 3rd instar larvae are added. These are about 10 mm long.
Test Procedure: The bean plant is dipped for 3 seconds with agitation in the test formulation and placed in the hood to dry. One leaf is removed from the plant and placed in the petri dish with the caterpillars.
Holding Conditions: The dish is held at 27° C. The plant with the remaining leaf is held in the greenhouse under high intensity lights.
Observations: Mortality counts are made after 2 days and recorded using the standard 0-9 rating system.

[3] = test system: Tobacco budworm (Heliothis virescens), egg; experiment: Screening, TBW egg test (tobacco budworm eggs); type: in vivo; settings: 300 ppm
From the text: Insect: Tobacco budworm (Heliothis virescens), egg
Test: Screening, TBW egg test.
(§1) Formulation: 50:50 acetone:water.
Concentrations: Screening: 300, 100, 10, 1 ppm.
(§2) Plant Preparation: Cotton plants are selected to give plants with the first true leaf expanded to about 6-7 cm in length.
Insect Preparation: Eggs are collected on cheesecloth used as the lid for the moth oviposition chamber in the rearing colony. This cloth is cut into 10-20 mm squares containing about 50-100 budworm eggs laid within the past day. Thus, eggs are 6-30 hours old when used in the test.
Test Procedures: The cotton plant is dipped in the test formulation and agitated for 3 seconds. A square of cheesecloth with eggs is also dipped in the test formulation, placed on the treated leaf and the combination placed in the hood to air dry. When dry, the leaf and egg cloth are removed from the plant, and placed in an "8-ounce Dixie cup (240 ml. 6 cm high, top diameter 9.5 cm. bottom diameter 8 cm)," to which a 5 cm length of damp cotton dental wick had been previously added. A clear plastic lid is placed on the cup.
Holding Conditions: The cups are held at 27° C. until the eggs hatch, which occurs in about 2 days.
Observations: Kill of eggs. This may require the use of a low-power microscope to determine if the lack of visible mobile caterpillars is due to lack of egg hatch or due to the newly hatched caterpillars dying on the leaf under and near the cheesecloth. The standard rating system of 0-9 is used to record the results.

[4] = test system: Tobacco budworm (Heliothis vireacens), 1st instar; experiment: Screening, TBW 1st instar test; type: in vivo
Description: Insect: Tobacco budworm (Heliothis vireacens), 1st instar.
Test: Screening, TBW 1st instar test.
(§3) Formulation: 50:50 acetone:water
Concentrations: Screening: 300, 100, 10, 1 ppm
as §2
Insect Preparation: Cheesecloth on which moths have oviposited is daily cut into 10-20 mm squares containing 50-100 eggs each. These squares are held at 21° C. for 2 days and 24° C. for another day in order to coordinate hatch with testing times. Thus, the larvae are 0-2 hours old at time of use.
Test Procedure: The cotton plant is dipped in the test formulation, agitated for 3 seconds, and placed in the hood to air dry. When dry, the leaf is removed from the plant and placed in an "8-ounce Dixie cup (240 ml, 6 cm high, top diameter 9.5 cm, bottom diameter (8 cm)" to which a 5 cm length of damp cotton dental wick had been previously added. A square of cheesecloth with newly hatched budworm larvae on it is placed on the treated leaf and a clear plastic lid is put on the cup.
Holding Conditions: The cups are held at 27° C. for 2 days.
Observations: Kill of larvae. This may require the use of a low-power microscope to determine if the worms are dead or just not feeding. Observation of amount of feeding is also recorded. Where there is only trace to light feeding, the cup is held an extra day and results recorded at that time. The standard rating system of 0-9 is used.

[5] = test system: Bean aphid (Aphis fabae), mixed stages; experiment: Screening: bean aphid test; type: in vivo; settings: 100 ppm
Description: Insect: Bean aphid (Aphis fabae), mixed stages.
Test: Screening: bean aphid test
as §1
Plant Preparation: 5 cm pots each containing a nasturtium plant about 5 cm tall are infested with 100 to 400 aphids 2-4 days before the test.
Insect Preparation: See above.
Test Procedure: The pot of aphids is sprayed for 2 revolutions of a 4 rpm turntable in the hood, using a #154 DeVilbiss atomizer at 1500 kg/m^2 pressure. The spray tip is held about 15 cm from the plant and the spray directed so as to give complete coverage of the aphid and the plants. The sprayed plants are laid on their sides on white enamel trays measuring 24×34 cm.
Holding Conditions: Trays of sprayed pots are held at 27° C. for 1 day.
Observations: Mortality estimates are made and data recorded with the standard […] rating system.
NOTE: For LD50 determinations, a clean tray 24×34 cm is ruled off into a grid with 3 cm spacing and the live aphids gently brushed off the plant onto the gridded tray. This makes it easier to make an exact count of the number of aphids on the plant. Dead aphids, which fall off the plant onto the tray, are counted where they fall, since they stick to the tray and cannot be brushed onto a gridded tray for counting.

[6] = test system: Phosphate resistant 2-spotted spider mite (Tetranychus urticae); experiment: Screening: Mite test; type: in vivo; settings: 300 ppm
Description: Mite: Phosphate resistant 2-spotted spider mite
(Tetranychus urticae), adults, eggs, nymphs.
Test: Screening: Mite test.
as §3
Plant Preparation: Sieva lima bean plants with primary leaves 7-8 cm long are selected and cut back to one plant per pot. A small piece is cut off of a leaf taken from the main mite colony and placed on each leaf of the test plants. This is done about 1-3 hours before use to allow the mites to move over to the test plant and lay eggs before treatment. The size of the piece cut is varied to try to obtain about 100 mites per leaf.
Mite Preparation: See above.
Test Procedure: The piece of leaf used to transfer mites is removed and discarded. The mite-infested plant is dipped in the test formulation for 3 seconds with agitation, and the plant set in the hood to dry.
Holding Conditions: The plants are held for 2 days at 27° C. for the first observation, and the second leaf is kept on the plant for another 5 days for the final observation.
Observations: After 2 days one leaf is removed and examined under a 10×microscope to determine the mortality of the adult mites. The second leaf is examined similarly 7 days after treatment to observe the kill of eggs and of newly hatched nymphs giving a measure of ovicidal and residual action, respectively. Any evidence of phytotoxicity from the test treatment is noted. The standard rating system of 0-9 is used to record the mite data.

[7] = Solubility of the toxicant in fatty acids and edible fats and oils; type: physicochemical
[8] = listed as Amidino Hydrazone Salt Of Linoleic Acid
[9] = listed as Amidino Hydrazone Salt Of Linolenic Acid
[10] = listed as Amidino Hydrazone Salt Of Oleic Acid
[11] = listed as Amidino Hydrazone Salt Of Stearic Acid

SMILES | 3rd Instar Armyworms control rating ([2]; 10 ppm) | 3rd Instar Armyworms control rating ([2]; 100 ppm) | 3rd Instar Armyworms control rating ([2]; 1000 ppm) | Budworm Eggs control rating [3] | 1st Instar Tobacco Budworms control rating ([4]; 10 ppm) | 1st Instar Tobacco Budworms control rating ([4]; 100 ppm) | 1st Instar Tobacco Budworms control rating ([4]; 300 ppm) | Aphids control rating [5] | P-res. Mites control rating [6] | further results
CC1(C)CN=C(NN=C(C=Cc2ccc(C(F)(F)F)cc2)C=Cc2ccc(C(F)(F)F)cc2)NC1 [Amidino Hydrazone Linoleate] | 9 (100% control) | 9 (100% control) | 9 (100% control) | 0 (0 control) | 0 (0 control) | 7 (80% control) | 9 (100% control) | 0 (0 control) | 0 (0 control) | % Salt in Oil Layer [1, 8]: 47%; % Amidino Hydrazone in Oil Layer (w/w), Average [1, 8]: 30.3 % (w/w); % Amidino Hydrazone in Oil Layer (w/w) [1, 8]: 30.3 % (w/w) and 30.4 % (w/w)
CC1(C)CN=C(NN=C(C=Cc2ccc(C(F)(F)F)cc2)C=Cc2ccc(C(F)(F)F)cc2)NC1 [Amidino Hydrazone Linolenate] | – | 9 (100% control) | 9 (100% control) | 0 (0 control) | 0 (0 control) | – | – | – | 0 (0 control) | % Salt in Oil Layer [1, 9]: 55%; % Amidino Hydrazone in Oil Layer (w/w), Average [1, 9]: 35.4 % (w/w); % Amidino Hydrazone in Oil Layer (w/w) [1, 9]: 35.9 % (w/w) and 34.8 % (w/w); 3rd Instar Armyworms control rating ([2]; 10 ppm, listed as Amidino Hydrazine Linolenate): 9 (100% control); 1st Instar Tobacco Budworms control rating ([4]; 100 ppm, listed as Amidino Hydrazine Linolenate): 9 (100% control); 1st Instar Tobacco Budworms control rating ([4]; 300 ppm, listed as Amidino Hydrazine Linolenate): 9 (100% control); Aphids control rating ([5]; listed as Amidino Hydrazine Linolenate): 5 (60% control)
CC1(C)CN=C(NN=C(C=Cc2ccc(C(F)(F)F)cc2)C=Cc2ccc(C(F)(F)F)cc2)NC1 [Amidino Hydrazone Oleate] | 6 (70% control) | 9 (100% control) | 9 (100% control) | 0 (0 control) | 0 (0 control) | 0 (0 control) | 7 (80% control) | 0 (0 control) | 0 (0 control) | % Salt in Oil Layer [1, 10]: 44%; % Amidino Hydrazone in Oil Layer (w/w), Average [1, 10]: 28.0 % (w/w); % Amidino Hydrazone in Oil Layer (w/w) [1, 10]: 27.8 % (w/w) and 28.1 % (w/w)
CC1(C)CN=C(NN=C(C=Cc2ccc(C(F)(F)F)cc2)C=Cc2ccc(C(F)(F)F)cc2)NC1 [Amidino Hydrazone Stearate, 1,4-pentadien-3-one, 1,5-bis(alpha,alpha,alpha-trifluoro-p-tolyl)-(1,4,5,6-tetrahydro-5,5-dimethyl-2-pyrimidinyl)hydrazone stearate] | 9 (100% control) | 9 (100% control) | 9 (100% control) | 0 (0 control) | 0 (0 control) | 9 (100% control) | 9 (100% control) | 8 (90% control) | 0 (0 control) | % Salt in Oil Layer [1, 11]: 47%; % Amidino Hydrazone in Oil Layer (w/w), Average [1, 11]: 30.1 % (w/w); % Amidino Hydrazone in Oil Layer (w/w) [1, 11]: 29.8 % (w/w) and 30.4 % (w/w)
CC1(C)CN=C(NN=C(C=Cc2ccc(C(F)(F)F)cc2)C=Cc2ccc(C(F)(F)F)cc2)NC1 [Amidino Hydrazone, 1,5-bis(alpha,alpha,alpha-trifluoro-p-tolyl)-1,4-pentadien-3-one (1,4,5,6-tetrahydro-5,5-dimethyl-2-pyrimidinyl)hydrazone] | – | – | – | – | – | – | – | – | – | solubility in edible fats and oils attractive to fire ants ([7]; edible fats and oils as solvents for the toxicant): not very good solvents; solubility in fatty acids ([7]; oleic, linoleic, linolenic, stearic acid and mixtures): readily soluble
